Experimental data published in US20100120084A1, “REACTION MEDIUM FOR IDENTIFYING/DETECTING MICROORGANISMS” (Biomerieux, priority 2007, published 2010).
Read-outs that look alike come from different tables or passages of the source.

Experiments:
[1] = type: physicochemical; conditions: for native molecule (cloxacillin) found after heating: 31 h at 75° C.
Protocol: Cloxacillin (molecular mass 475.88) is an antibiotic of β-lactam type, used to inhibit the growth of certain bacterial species such as Enterobacter aerogenes or Escherichia coli. The cyclodextrins of the BioCydex library were incubated with cloxacillin in a 1:1 molar ratio (concentration=210.12 mM), at 20° C. for 72 h (shaking in the dark). The amount of residual cloxacillin was then analyzed by HPLC.
The following tests were carried out in an aqueous medium and at high temperature (75° C.) in order to accelerate the rate of degradation.
The complexes were prepared at ambient temperature with cloxacillin:cyclodextrin molar ratios of 1:16 and of 1:79. The solutions containing 0.63 mM, i.e. 300 mg·L^−1, of cloxacillin were incubated at 75° C. for 31 h. The analysis of the samples and the quantification thereof so as to evaluate the stability of the antibiotic were carried out on a Thermo Finnigan SpectraSYSTEM HPLC system equipped with a P1000XR pump, an AS3000 automatic injector, a UV1000 UV/visible detector, and a Merck Chromolith® Performance RP-18 endcapped column (100-4.6 mm) preceded by a Merck Chromolith® RP-18e guard column (5-4.6 mm).
(§1) The mobile phases were prepared using HPLC-grade acetonitrile and water acidified with trifluoroacetic acid (100 μL/L). A methanol/water gradient of 0/100 to 100/0 was applied in 12 min. After stabilization for 2 min, the column is reequilibrated under the initial conditions. The elution speed is 1 mL/min, the temperature is 22° C. and the detection is carried out at 220 nm. The sample injection volume is 20 μL. The chromatographic data were processed using the Atlas software, version 2003.1 (Thermo Electron Corporation, UK).

[2] = tested on: β-lactamase; test: β-lactamase resistance to heat degradation (residual amoxicillin by HPLC); conditions: for [Amoxicillin] (arbitrary units): amoxicillin 500 mg·L^−1, 5 min at 25° C.
Protocol: β-Lactamase (Genzyme Biochemicals Ref. BELA-70-1431) in an amount equivalent to 0.375 U·mL^−1 was mixed with the cyclodextrin BCD A56 of the Protéosol® range (1 or 10 mM), at ambient temperature and in the dark, for 30 min. The mixture was then heated at 70° C. for 45 min. […] After incubation for 5 min at 25° C., the residual amoxicillin was analyzed by HPLC.
On the basis of the above profiles, it was possible to quantify the concentration of amoxicillin and to link this value to the β-lactamase activity.

[3] = Stability of cefoxitin in the presence of cyclodextrins at 65° C. (HPLC); type: physicochemical
Protocol: 0.444 mM of cefoxitin (Sigma, Ref. C4786-5G) and 8.88 mM of cyclodextrin (ACD N0 or GCD NO or BCD R59 or BCD C15), i.e. in a molar ratio of 1:20, were dissolved with stirring for one hour at ambient temperature. The mixture was then brought to 65° C. for 90 min. The integrity of the cefoxitin was then analyzed by HPLC. The analysis of the samples and the quantification thereof were carried out on a Thermo Finnigan SpectraSYSTEM HPLC system equipped with a P1000XR pump, an AS3000 automatic injector, a UV1000 UV/visible detector, and a Merck Chromolith® Performance RP-18 endcapped column (100-4.6 mm) preceded by a Merck Chromolith® RP-18e guard column (5-4.6 mm).
as §1, with “254” for “220”
The optimization of protection was sought by varying the cefoxitin:cyclodextrin (BCD R59 and BCD C15) molar ratio from 1:1 to 1:216, the other conditions remaining unchanged. […] The improvement in stability was calculated relative to the control without cyclodextrin.

[4] = cloxacillin complexed with cyclodextrin

**Q.** Which “native molecule (cloxacillin) found after heating” value [1, 4] does the source give for “randomly 2,3,6-O-(2-hydroxypropyl)cyclomaltoheptaose [BCD R59]” here?
**A.** Its value is 40%.

**Q.** Which results are given for `Cc1onc(-c2ccccc2Cl)c1C(=O)N[C@@H]1C(=O)N2[C@@H]1SC(C)(C)[C@@H]2C(=O)O` [cloxacillin, reference compound]?
**A.** Cloxacillin stability (%) ([1]; 31 h, 0.63 mM): 0.6%; native molecule (cloxacillin) found after heating ([1]; cloxacillin not associated with cyclodextrin): 0%

**Q.** For “6^I-(3-aminopropylamino)-6^I-deoxycyclomaltoheptaose [BCD A56]”, which “protection of the β-lactamase against heat” value ([2]; BCD A56 at 10 mM, reference: absence of cyclodextrin) is on record?
**A.** Its value is “excellent protection”.

**Q.** And the “interaction with the active site of the enzyme” value ([2]; β-lactamase + BCD A56)?
**A.** The value was “did not interact”.

**Q.** What about the “[Amoxicillin] (arbitrary units)” value ([2]; β-lactamase heated 70° C. 45 min + BCD A56 at 1 mM) of the same molecule?
**A.** Its value is 4.3 arbitrary units.

**Q.** What about the “[Amoxicillin] (arbitrary units)” value ([2]; β-lactamase heated 70° C. 45 min + BCD A56 at 10 mM) of the same molecule?
**A.** Its value is 0.8 arbitrary units.

**Q.** Which results are given for “randomly 2-O-methyl-cyclomaltoheptaose [BCD C15]”?
**A.** protection of cloxacillin against heat degradation, comparison of cyclodextrins [1]: best protection; native molecule (cloxacillin) found after heating [1, 4]: 40%; complexed antibiotic (cefoxitin) less degraded than the molecule alone [3]: approximately 10%; protection of cefoxitin, comparison of BCD R59 and BCD C15 ([3]; molar ratios between 1:6 and 1:30, FIG. 2): most effective

**Q.** For `CO[C@@]1(NC(=O)Cc2cccs2)C(=O)N2C(C(=O)O)=C(COC(N)=O)CS[C@@H]21` [cefoxitin, reference compound], which stability of cefoxitin ([3]; cefoxitin:cyclodextrin molar ratio 1:50, 90 min at 65° C.) is on record?
**A.** The stability of cefoxitin was 47.5%.

**Q.** What about the Cefoxitin stability/% ([3]; no cyclodextrin, 0.444 mM cefoxitin, 65° C. for 90 min) of the same molecule?
**A.** Its Cefoxitin stability/% is 38.5%.
